Results from patent US11866416B2, “Streptococcus mutans glucosyl transferase inhibitors for dental caries therapy” (UAB Research Foundation, priority 2018, dated 2024).
Where two headings read alike, the source gives them in different places.

What was measured:
GtfC catalytic domain = GtfC catalytic domain (Streptococcus mutans serotype c (strain ATCC 700610 / UA159), UniProt P13470); assay: OctetRed96 binding kinetics, GtfC
Source text: To determine if the inhibition is attributed by the binding of the lead compound to the enzymes, the OctetRed96 system was used to characterize protein-small molecule binding kinetics. The his-tagged catalytic domains of GtfB and GtC were immobilized separately onto an anti-penta-HIS (HIS1K) biosensor which consists of high affinity, high specificity penta-his antibody pre-immobilized on a fiber optic biosensor. This sensor was then exposed to varying concentrations of #G43.
Expression and purification of GtfB and GtfC catalytic domains. The DNA fragment coding for either GtfB catalytic (residues 268 aa-1074 aa) or GtfC-catalytic (residues 295 aa-1103 aa) was PCR amplified with primer sets of GtfB-BamH1-F and GtfB-Xho1-R, GtfC-BamH1-F and GtfC-Xhol1-R respectively using S. mutans genomic DNA as a template. Each amplified fragment was cloned into pET-sumo vector respectively and transformed in Escherichia coli BL21(DE3). […]
Octet Red analysis. […] The rate constant, KD, was determined using the Octet® Red96 system (ForteBio, Menlo Park, Calif.). […] The proteins were captured on dip-and-read Anti-Penta-HIS (HIS1K) Biosensor. […] The binding of #G43 at 3-fold serial dilutions in phosphate buffer from 200, 66.6, 22.2, 7.4, 2.5 to 0 μM was assessed. […]
OctetRed analysis. […] Sensorgrams and the accuracy of the analysis was calculated using the ForteBio OctetRed analysis software (ForteBio, Menlo Park, Calif.).

S. gordonii = assay: Growth of commensal S. gordonii; type: cell-based, Streptococcus gordonii
Experimental: Cell viability of S. mutans, S. gordonii, S. sanguinis, Aggregatibacter actinomycetemcomitans and Actinomyces. […] The number of colony-forming units (CFU) per milliliter of each sample treated with selected compounds at different concentrations was enumerated after incubation for 24 h at 37° C. and compared to the values obtained from the DMSO control group. Overnight broth cultures were transferred by 1:50 dilutions into fresh THB medium and were allowed to grow until mid-exponential phase (OD470 nm 0.6) before transfer to 96-well plates containing desired concentration of the compound. After 16 h incubation, bacterial growth was measured at OD470, and normalized to the DMSO control (100%).
Cell viability of S. mutans and commensal S. gordonii and S. sanguinis. Effects of lead small molecules on cell viability were examined. The number of colony-forming units (CFU) per milliliter for each compound at different concentrations was determined after incubation for 24 h at 37° C. and compared to the values obtained from the DMSO control group.
Cell viability of S. mutans and commensal S. gordonii and S. sanguinis. […] DMSO served as a control group and provided a relative comparison for the number of colony-forming units (CFU) per milliliter for each compound at different concentrations was determined after incubation for 24 h at 37° C. The final concentration of DMSO used in the assays was 1%.

S. sanguinis biofilm = assay: Mono-species biofilm of S. sanguinis; type: cell-based, Streptococcus sanguinis; settings: up to 200 μM
Experimental: Growth of commensal and dual-species biofilms. Overnight broth cultures were transferred by 1:50 dilutions into fresh THB medium and were allowed to grow until mid-exponential phase (OD470 nm=0.6) before transfer to 96-well plates. For mono-species biofilms, 1:100 dilution of the individual cultures was added to the 96-well plate containing the desired concentration of compound or DMSO. After incubation for 16 h, the biofilms were gently washed with PBS in triplicate and the biofilms were quantified with crystal violet staining. For dual-species biofilms, 1:100 dilution of S. mutans was used and 1:10 dilution of the commensal species (S. sanguinius or S. gordonii) was used as inoculum to seed the 96-well plate containing the desired concentration of compound or DMSO. After incubation for 16 h, the biofilms were scratched off with a sterile spatula and suspended in 100 μL of PBS, the biofilm samples were vortexed. To determine the total number of viable bacterial cells (colony forming units, CFU), 100 μl from dispersed, 16 h biofilms were serially diluted in potassium phosphate buffer and plated in duplicate on BAP. The commensal species could be differentiated from S. mutans due to their characteristic green rings.

S. mutans biofilm = S. mutans biofilm formation and inhibition assay (96-well plates, crystal violet); type: cell-based, Streptococcus mutans; settings: for IC50: Streptococcus mutans

Sequence of GtfC catalytic domain (P13470 295-1103 limits assumed): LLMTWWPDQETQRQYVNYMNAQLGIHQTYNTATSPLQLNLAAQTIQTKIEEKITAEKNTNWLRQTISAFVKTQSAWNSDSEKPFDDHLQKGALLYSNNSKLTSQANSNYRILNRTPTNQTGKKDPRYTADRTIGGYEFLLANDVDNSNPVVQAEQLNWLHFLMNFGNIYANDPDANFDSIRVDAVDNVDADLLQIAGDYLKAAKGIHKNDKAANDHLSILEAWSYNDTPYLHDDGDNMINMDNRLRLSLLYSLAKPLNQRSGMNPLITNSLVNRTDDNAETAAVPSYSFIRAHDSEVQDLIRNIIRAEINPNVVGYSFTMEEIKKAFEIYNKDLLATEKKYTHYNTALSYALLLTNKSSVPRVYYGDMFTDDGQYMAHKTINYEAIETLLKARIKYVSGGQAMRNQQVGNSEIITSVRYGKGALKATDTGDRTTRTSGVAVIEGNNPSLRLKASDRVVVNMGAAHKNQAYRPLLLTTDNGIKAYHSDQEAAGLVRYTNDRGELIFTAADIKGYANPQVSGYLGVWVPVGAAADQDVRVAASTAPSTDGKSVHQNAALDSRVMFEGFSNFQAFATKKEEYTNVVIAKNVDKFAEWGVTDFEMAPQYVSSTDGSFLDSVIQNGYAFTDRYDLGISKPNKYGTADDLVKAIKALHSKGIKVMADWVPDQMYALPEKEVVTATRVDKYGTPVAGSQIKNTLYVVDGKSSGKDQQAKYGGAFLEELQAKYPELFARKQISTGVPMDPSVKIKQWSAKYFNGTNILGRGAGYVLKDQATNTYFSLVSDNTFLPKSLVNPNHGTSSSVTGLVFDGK

## NC(=O)c1ccccc1NC(=O)c1cc2cc([N+](=O)[O-])ccc2s1 [#G43]
GtfC catalytic domain; 1:1 binding model
  Kd: 0.0469 µM
S. gordonii; 200 μM, OD470
  effect on S. gordonii growth: did not have any effect on bacterial growth
S. sanguinis biofilm
  S. sanguinis biofilm formation versus control: No significant difference
S. mutans biofilm; 12.5 μM, crystal violet assay
  inhibition of S. mutans biofilms at 12.5 μM: more than 85%

## Oc1ccc(/C=C/c2cc(O)cc(O)c2)cc1 [Resveratrol, reference compound]
GtfC catalytic domain; stilbenes, 1:1 binding mode
  Kd: 510 µM

## Oc1cc(O)cc(/C=C/c2ccc(O)c(O)c2)c1 [Piceatannol]
S. gordonii; 400 μM
  decrease of S. gordonii cell density: 15-18%
S. gordonii; Streptococcus gordonii, at 52 μM, read-out: growth of S. gordonii inhibited
  inhibition at 52 µM: < 10%
S. mutans biofilm; Table 3, read-out: Biofilm Inhibition IC50
  IC50: 52 ± 6 µM
S. mutans biofilm; Table 4, stilbenes, NI = no inhibition, read-out: Biofilm IC50
  IC50: 52 ± 6 µM
S. mutans biofilm; Table 8, stilbenes, NI = no inhibition, read-out: Biofilm IC50
  IC50: 52 ± 6 µM
S. mutans biofilm; read-out: S. mutans biofilm IC50
  IC50: 52 µM
